Experimental data: ChEMBL document CHEMBL1145159 (J Med Chem, 2005)
Several values for one entry are separate records, joined by “and”; a condition that tells them apart may be missing. Equal values may be shown once. Peptide text beside a SMILES is read from it.

Assays:
[1] = biological target: T1, Neuronal acetylcholine receptor; alpha4/beta4 (Homo sapiens, UniProt P30926+P43681); test: Maximal response against Nicotinic acetylcholine receptor alpha4-beta4; format: protein-complex assay
[2] = biological target: T2, Neuronal acetylcholine receptor; alpha3/beta4 (Homo sapiens, UniProt P30926+P32297); test: Maximal response against Nicotinic acetylcholine receptor alpha3-beta4; format: protein-complex assay
[3] = biological target: T3, Neuronal acetylcholine receptor; alpha4/beta2 (Homo sapiens, UniProt P17787+P43681); test: Maximal response against Nicotinic acetylcholine receptor alpha4-beta2; format: protein-complex assay
[4] = biological target: T4, Neuronal acetylcholine receptor; alpha3/beta2 (Homo sapiens, UniProt P17787+P32297); test: Maximal response against Nicotinic acetylcholine receptor alpha3-beta2; format: protein-complex assay
[5] = biological target: T5, Neuronal acetylcholine receptor subunit alpha-7 (Homo sapiens, UniProt P36544); test: Effective concentration against Nicotinic acetylcholine receptor alpha 7
[6] = biological target: Neuronal acetylcholine receptor subunit alpha-7 (Rattus norvegicus) (UniProt Q05941); test: Maximal response against Nicotinic acetylcholine receptor alpha 7
[7] = biological target: T2, Neuronal acetylcholine receptor; alpha3/beta4; test: Effective concentration against Nicotinic acetylcholine receptor alpha3-beta4; format: protein-complex assay
[8] = biological target: T1, Neuronal acetylcholine receptor; alpha4/beta4; test: Effective concentration against Nicotinic acetylcholine receptor alpha4-beta4; format: protein-complex assay
[9] = biological target: T3, Neuronal acetylcholine receptor; alpha4/beta2; test: Effective concentration against Nicotinic acetylcholine receptor alpha4-beta2; format: protein-complex assay
[10] = biological target: T5, Neuronal acetylcholine receptor subunit alpha-7; test: Inhibitory concentration against Nicotinic acetylcholine receptor alpha 7
[11] = biological target: T3, Neuronal acetylcholine receptor; alpha4/beta2; test: (§1) Inhibitory concentration against Nicotinic acetylcholine receptor alpha4-beta2; format: protein-complex assay
[12] = biological target: T4, Neuronal acetylcholine receptor; alpha3/beta2; test: Inhibitory concentration against Nicotinic acetylcholine receptor alpha3-beta2; format: protein-complex assay
[13] = biological target: T6, Neuronal acetylcholine receptor; alpha2/beta4 (Homo sapiens, UniProt P30926+Q15822); test: Inhibitory concentration against Nicotinic acetylcholine receptor alpha2-beta4; format: protein-complex assay
[14] = biological target: T2, Neuronal acetylcholine receptor; alpha3/beta4; test: Inhibitory concentration against Nicotinic acetylcholine receptor alpha3-beta4; format: protein-complex assay
[15] = Inhibitory concentration against Nicotinic acetylcholine receptor alpha2-beta4 expressed in xenopus oocytes; format: cell-based; details: oocyte
[16] = biological target: T5, Neuronal acetylcholine receptor subunit alpha-7; test: Inhibitory concentration against Nicotinic acetylcholine receptor alpha-7 expressed in xenopus oocytes; format: cell-based; details: xenopus oocyte
[17] = biological target: T3, Neuronal acetylcholine receptor; alpha4/beta2; test: Ki or IC50 concentration against Nicotinic acetylcholine receptor alpha4-beta2 expressed in xenopus oocytes; format: cell-based; details: Oocyte
[18] = Inhibitory concentration against Nicotinic acetylcholine receptor alpha3-beta4 expressed in xenopus oocytes; format: cell-based; details: oocyte
[19] = biological target: T1, Neuronal acetylcholine receptor; alpha4/beta4; test: Ki or IC50 concentration against Nicotinic acetylcholine receptor alpha4-beta4 expressed in xenopus oocytes; format: cell-based; details: Oocyte
[20] = biological target: T3, Neuronal acetylcholine receptor; alpha4/beta2; test: as §1; format: protein-complex assay; remark: listed apart in the source
[21] = biological target: T4, Neuronal acetylcholine receptor; alpha3/beta2; test: Effective concentration against Nicotinic acetylcholine receptor alpha3-beta2; format: protein-complex assay
[22] = biological target: T6, Neuronal acetylcholine receptor; alpha2/beta4; test: Effective concentration against Nicotinic acetylcholine receptor alpha2-beta4; format: protein-complex assay
[23] = biological target: T6, Neuronal acetylcholine receptor; alpha2/beta4; test: Maximal response against Nicotinic acetylcholine receptor alpha2-beta4; format: protein-complex assay
[24] = Effective concentration against Nicotinic acetylcholine receptor alpha2-beta4 expressed in xenopus oocytes; format: cell-based; details: oocyte
[25] = Effective concentration against Nicotinic acetylcholine receptor alpha4-beta2 expressed in xenopus oocytes; format: cell-based; details: oocyte
[26] = biological target: T4, Neuronal acetylcholine receptor; alpha3/beta2; test: Effective concentration against Nicotinic acetylcholine receptor alpha3-beta2 expressed in xenopus oocytes; format: cell-based, Oocyte
[27] = Effective concentration against Nicotinic acetylcholine receptor alpha4-beta4 expressed in xenopus oocytes; format: cell-based; details: oocyte
[28] = Effective concentration against Nicotinic acetylcholine receptor alpha3-beta4 expressed in xenopus oocytes; format: cell-based; details: oocyte
[29] = biological target: T4, Neuronal acetylcholine receptor; alpha3/beta2; test: Maximal response against Nicotinic acetylcholine receptor alpha3-beta2 expressed in HEK293 cells; format: cell-based
[30] = biological target: T3, Neuronal acetylcholine receptor; alpha4/beta2; test: Maximal response against Nicotinic acetylcholine receptor alpha4-beta2 expressed in HEK293 cells; format: cell-based

Chain of Neuronal acetylcholine receptor subunit alpha-7 (Rattus norvegicus) (Q05941 whole entry): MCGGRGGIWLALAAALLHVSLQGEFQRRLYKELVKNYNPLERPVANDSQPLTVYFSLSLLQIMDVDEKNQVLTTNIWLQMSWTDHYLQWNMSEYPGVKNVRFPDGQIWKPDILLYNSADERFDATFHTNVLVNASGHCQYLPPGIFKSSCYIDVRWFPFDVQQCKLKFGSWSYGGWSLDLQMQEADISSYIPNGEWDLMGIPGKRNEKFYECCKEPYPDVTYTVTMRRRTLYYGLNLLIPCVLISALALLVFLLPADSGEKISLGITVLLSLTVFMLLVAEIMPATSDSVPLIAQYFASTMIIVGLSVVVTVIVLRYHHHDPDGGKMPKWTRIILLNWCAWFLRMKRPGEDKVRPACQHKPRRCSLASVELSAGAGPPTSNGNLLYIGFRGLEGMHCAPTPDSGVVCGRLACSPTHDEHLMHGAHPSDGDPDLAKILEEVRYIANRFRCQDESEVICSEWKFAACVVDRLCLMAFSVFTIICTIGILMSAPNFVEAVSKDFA
T4 sequence (P17787 whole entry): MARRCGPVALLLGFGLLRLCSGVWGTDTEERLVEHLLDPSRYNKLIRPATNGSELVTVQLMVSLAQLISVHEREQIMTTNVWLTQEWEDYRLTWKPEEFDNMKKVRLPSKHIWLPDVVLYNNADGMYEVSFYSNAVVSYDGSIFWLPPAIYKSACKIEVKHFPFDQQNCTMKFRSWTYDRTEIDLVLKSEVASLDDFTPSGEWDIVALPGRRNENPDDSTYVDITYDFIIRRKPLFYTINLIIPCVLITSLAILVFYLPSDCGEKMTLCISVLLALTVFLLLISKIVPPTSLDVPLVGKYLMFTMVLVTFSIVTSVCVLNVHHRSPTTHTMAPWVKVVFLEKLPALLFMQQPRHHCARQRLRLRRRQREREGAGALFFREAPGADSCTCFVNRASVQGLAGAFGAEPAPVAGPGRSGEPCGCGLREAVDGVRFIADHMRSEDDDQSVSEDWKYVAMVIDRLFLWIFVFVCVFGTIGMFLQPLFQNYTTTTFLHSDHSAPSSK
T4 sequence (P32297 whole entry): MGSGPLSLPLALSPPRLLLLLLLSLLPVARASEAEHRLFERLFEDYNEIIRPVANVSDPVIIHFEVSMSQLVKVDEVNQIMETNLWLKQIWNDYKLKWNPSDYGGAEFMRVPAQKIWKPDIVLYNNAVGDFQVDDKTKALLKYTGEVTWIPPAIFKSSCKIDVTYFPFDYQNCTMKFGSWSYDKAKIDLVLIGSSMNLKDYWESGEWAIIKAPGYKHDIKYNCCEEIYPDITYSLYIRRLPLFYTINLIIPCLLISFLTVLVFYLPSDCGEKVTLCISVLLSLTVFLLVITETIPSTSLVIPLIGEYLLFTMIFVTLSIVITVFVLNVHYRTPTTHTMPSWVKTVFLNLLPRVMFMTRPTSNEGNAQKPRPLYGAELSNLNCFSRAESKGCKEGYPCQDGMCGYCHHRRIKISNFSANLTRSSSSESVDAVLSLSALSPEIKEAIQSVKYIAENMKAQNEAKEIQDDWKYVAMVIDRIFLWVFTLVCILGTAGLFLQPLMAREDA
T3 sequence (P17787 whole entry): as the sequence (P17787 whole entry) above
T3 sequence (P43681 whole entry): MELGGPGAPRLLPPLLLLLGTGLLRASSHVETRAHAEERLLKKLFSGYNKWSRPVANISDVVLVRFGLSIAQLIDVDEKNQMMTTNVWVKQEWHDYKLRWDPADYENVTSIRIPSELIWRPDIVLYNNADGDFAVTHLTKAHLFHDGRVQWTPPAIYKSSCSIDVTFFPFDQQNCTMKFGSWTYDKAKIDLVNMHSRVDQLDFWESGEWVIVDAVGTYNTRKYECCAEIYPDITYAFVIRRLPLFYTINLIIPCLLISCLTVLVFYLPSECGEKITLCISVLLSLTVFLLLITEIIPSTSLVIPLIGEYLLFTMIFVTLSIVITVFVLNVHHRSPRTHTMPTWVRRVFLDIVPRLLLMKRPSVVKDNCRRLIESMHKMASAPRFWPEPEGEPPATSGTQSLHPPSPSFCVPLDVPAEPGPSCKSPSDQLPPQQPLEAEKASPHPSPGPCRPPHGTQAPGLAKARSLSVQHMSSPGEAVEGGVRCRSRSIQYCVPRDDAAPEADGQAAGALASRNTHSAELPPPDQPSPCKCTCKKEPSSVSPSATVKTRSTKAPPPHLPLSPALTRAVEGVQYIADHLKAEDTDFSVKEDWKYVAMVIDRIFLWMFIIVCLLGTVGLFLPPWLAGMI
T5 sequence (P36544 whole entry): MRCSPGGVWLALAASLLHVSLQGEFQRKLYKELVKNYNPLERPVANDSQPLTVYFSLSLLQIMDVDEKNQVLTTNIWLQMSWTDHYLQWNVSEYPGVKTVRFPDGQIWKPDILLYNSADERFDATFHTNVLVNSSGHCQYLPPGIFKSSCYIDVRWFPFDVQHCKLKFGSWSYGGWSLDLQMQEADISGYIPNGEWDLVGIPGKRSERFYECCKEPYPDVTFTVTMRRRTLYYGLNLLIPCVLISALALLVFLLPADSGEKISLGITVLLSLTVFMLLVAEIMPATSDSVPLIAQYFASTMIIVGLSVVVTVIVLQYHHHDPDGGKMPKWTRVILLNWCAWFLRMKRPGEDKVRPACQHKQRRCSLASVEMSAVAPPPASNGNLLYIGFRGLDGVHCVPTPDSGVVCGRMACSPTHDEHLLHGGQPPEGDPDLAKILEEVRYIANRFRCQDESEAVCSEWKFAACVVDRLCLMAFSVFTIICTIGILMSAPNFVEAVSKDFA
T2 sequence (P30926 whole entry): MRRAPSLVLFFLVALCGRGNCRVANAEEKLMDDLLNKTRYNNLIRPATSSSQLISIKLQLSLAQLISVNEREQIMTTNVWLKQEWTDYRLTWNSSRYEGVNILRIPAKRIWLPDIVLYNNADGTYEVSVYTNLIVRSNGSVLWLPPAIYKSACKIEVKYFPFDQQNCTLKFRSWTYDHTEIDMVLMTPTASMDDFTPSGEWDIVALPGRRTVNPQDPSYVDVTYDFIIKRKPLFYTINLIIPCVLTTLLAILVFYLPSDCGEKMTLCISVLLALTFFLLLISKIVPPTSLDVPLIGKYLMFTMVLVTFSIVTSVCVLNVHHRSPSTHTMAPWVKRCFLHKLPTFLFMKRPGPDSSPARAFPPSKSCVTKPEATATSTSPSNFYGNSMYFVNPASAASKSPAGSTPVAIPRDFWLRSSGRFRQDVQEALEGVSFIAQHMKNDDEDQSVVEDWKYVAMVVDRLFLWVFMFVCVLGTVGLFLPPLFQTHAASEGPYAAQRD
T2 sequence (P32297 whole entry): as the sequence (P32297 whole entry) above
T1 sequence (P30926 whole entry): as the sequence (P30926 whole entry) above
T1 sequence (P43681 whole entry): as the sequence (P43681 whole entry) above
T6 sequence (P30926 whole entry): as the sequence (P30926 whole entry) above
T6 sequence (Q15822 whole entry): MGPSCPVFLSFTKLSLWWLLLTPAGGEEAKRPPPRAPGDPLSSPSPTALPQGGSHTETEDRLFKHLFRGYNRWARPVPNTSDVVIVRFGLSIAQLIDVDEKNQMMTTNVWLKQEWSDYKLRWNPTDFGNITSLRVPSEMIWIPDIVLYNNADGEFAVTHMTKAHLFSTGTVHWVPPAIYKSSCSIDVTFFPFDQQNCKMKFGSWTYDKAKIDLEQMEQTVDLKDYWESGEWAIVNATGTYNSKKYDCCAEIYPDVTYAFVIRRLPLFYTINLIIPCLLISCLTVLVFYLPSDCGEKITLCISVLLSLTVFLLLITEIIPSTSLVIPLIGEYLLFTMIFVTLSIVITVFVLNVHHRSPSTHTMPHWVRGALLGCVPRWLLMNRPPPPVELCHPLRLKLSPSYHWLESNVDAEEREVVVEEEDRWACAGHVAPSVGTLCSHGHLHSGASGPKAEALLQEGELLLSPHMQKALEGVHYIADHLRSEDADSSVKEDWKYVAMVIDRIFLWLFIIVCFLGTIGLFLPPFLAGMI

CCOc1cncc(/C=C/CCN)c1
Rmax [1]: 16%
Rmax [2]: 55%

CCCC1CCCNC(c2cccnc2)C1 (stereo not drawn)
Rmax [3]: 3%
Rmax [4]: 5%
Rmax [2]: 2%
EC50 [5]: 44 µM

COc1ccc(/C=C2\CCCN=C2c2cccnc2)c(OC)c1 [GTS-21]
Rmax [6]: 23% and 28%
EC50 [7]: > 10 µM
Rmax [3]: 0%
EC50 [8]: > 10 µM
EC50 [9]: > 10 µM

CC(NC(C)(C)C)C(=O)c1cccc(Cl)c1 (stereo not drawn) [BUPROPION]
IC50 [10]: 50 µM

C[N+](C)(C)CCO
Rmax [6]: 90% and 100%

CC(=O)CCN1C[C@@H]2C[C@H](C1)c1cccc(=O)n1C2
Rmax [6]: > 100%
Rmax [3]: 3%
Rmax [2]: 11%

Fc1ccc(C2CC3CCC2N3)cn1 (stereo not drawn)
Rmax [1]: 131%
Rmax [3]: 41%
Rmax [2]: 40%

CC[N+](CC)(CC)CCOc1ccc(/C=C/c2ccccc2)cc1
Concentration [11]: 3.2 µM

CN(C)c1ccc(/C=C/C=C2\CCCN=C2c2cccnc2)cc1
Rmax [6]: 76%
Rmax [3]: 0%

O=C(NC1CN2CCC1CC2)c1ccc(-c2ccccn2)s1 (stereo not drawn)
Rmax [6]: 100%
EC50 [7]: > 10 µM
EC50 [8]: > 10 µM
EC50 [9]: > 10 µM

O=c1c(Br)ccc2n1C[C@@H]1CNC[C@H]2C1
Rmax [1]: 70%
Rmax [6]: 100%
Rmax [3]: 23%

CNC1(C)C2CCC(C2)C1(C)C (stereo not drawn) [MECAMYLAMINE]
Concentration [11]: 0.78 µM
IC50 [12]: 280 nM
IC50 [13]: 3.1 µM and 16 µM
IC50 [10]: 12.3 µM

CO[C@@H]1CC=C2CCN3CCC4=C(CC(=O)OC4)[C@@]23C1
IC50 [14]: 43 µM and 240 µM
IC50 [15]: 3.6 µM
Concentration [11]: 2.7 µM
Concentration [16]: 20 µM
Concentration [17]: 0.11 µM
IC50 [18]: 14 µM
Concentration [19]: 0.01 µM
IC50 [10]: 98 µM

CSCC[C@H](NC(=O)[C@H](CC(N)=O)NC(=O)[C@H](CS)NC(=O)[C@@H]1CCCN1C(=O)[C@H](CCCNC(=N)N)NC(=O)[C@H](CC(=O)O)NC(=O)[C@H](CO)NC(=O)[C@H](CS)NC(=O)[C@H](CS)NC(=O)CN)C(=O)N[C@@H](CC(N)=O)C(=O)N[C@@H](CC(N)=O)C(=O)N1CCC[C@H]1C(=O)N[C@@H](CC(=O)O)C(=O)N[C@@H](Cc1ccc(O)cc1)C(=O)N[C@@H](CS)C(N)=O (H-GCCSDRPCNMNNPDYC-NH2)
IC50 [14]: 0.03 µM
IC50 [12]: 30 nM
IC50 [10]: 0.03 µM

CN1CCC[C@H]1COc1cnc(Cl)c(-c2ccc(Cl)cc2)c1
IC50 [14]: 9.2 µM
Concentration [11]: 0.96 µM
IC50 [10]: 8.5 µM

CC[C@H](C)[C@H](NC(=O)[C@H](Cc1c[nH]cn1)NC(=O)[C@H](CCC(N)=O)NC(=O)[C@H](CC(N)=O)NC(=O)[C@H](CC(N)=O)NC(=O)CNC(=O)[C@H](C)NC(=O)[C@H](CS)NC(=O)[C@H](C)NC(=O)[C@@H]1CCCN1C(=O)[C@H](Cc1c[nH]cn1)NC(=O)[C@H](CO)NC(=O)[C@H](CS)NC(=O)[C@H](CS)NC(=O)CN)C(=O)N[C@@H](CS)C(N)=O
IC50 [20]: 1.1 nM
IC50 [12]: 1.1 nM
IC50 [10]: 0.0011 µM

c1ccc(-c2cnc3c(c2)CC2(CN4CCC2CC4)O3)cc1 (stereo not drawn)
EC50 [21]: > 100 µM
Rmax [6]: 85%
EC50 [7]: > 100 µM
EC50 [8]: > 100 µM
EC50 [9]: > 100 µM
EC50 [22]: > 100 µM

c1cncc(OC[C@@H]2CCN2)c1
Rmax [6]: 100%
Rmax [3]: 185%
Rmax [2]: 100%

O=c1cccc2n1C[C@@H]1CNC[C@H]2C1 [CYTISINICLINE]
Rmax [23]: 58%
EC50 [24]: 39 µM
Rmax [6]: 90% and 105%
EC50 [25]: 2700 nM
Rmax [3]: 11% and 2%
EC50 [26]: 67 µM
EC50 [27]: 900 nM
EC50 [28]: 72 µM
Rmax [4]: 23 µM
Rmax [29]: 55%
Rmax [30]: 42%

Clc1ccc(OC[C@@H]2CCN2)cn1
Rmax [6]: 85%
Rmax [3]: 161%
Rmax [2]: 166%
